Results on one molecule are retold here after US20110257013A1, “METHOD FOR CONTROLLING FLOWERING TIME OF PLANT” (SUMITOMO CHEMICAL COMPANY, LIMITED, priority 2008, published 2011).

The test system of the experiment is recombinant Arabidopsis thaliana. The experiment is described as follows: Flowering induction in recombinant Arabidopsis thaliana. The note with it: Arabidopsis with vector (e); 50 μM CuSO4 medium for six hours; observed five days after treatment; compared to non-inducible group. It counts as in vivo. The method, then:
The vector (e) prepared in Example 1 was introduced into Agrobacterium (Agrobacterium tumefaciens strain C58C1). The resulting Agrobacterium was cultured in a LB agar medium (0.5% yeast extract, 1.0% bactotrypton, 0.5% saline, 1% agar) containing 50 mg/L kanamycin, 100 mg/L ampicillin, and 100 mg/L rifampicin, and a drug-resistant colony was selected to obtain recombinant Agrobacterium. Arabidopsis (Arabidopsis thaliana ecotype Columbia) was infected by the obtained recombinant Agrobacterium according to the method described in Model Plant Laboratory Manual (edited by Iwabuchi Masaki et al, 2000, Springer-Verlag Tokyo Co., Ltd., ISBN 4-431-70881-2 C3045) to introduce genes. After T1 seeds collected from the Arabidopsis subjected to gene introduction, the seeds were plated and grown on a modified MS agar medium (MS inorganic salts, B5 vitamin, 1% sucrose, 0.8% agar) containing 20 mg/L of Benlate, 200 mg/L of Claforan, and 25 mg/L kanamycin to select a plant individual resistant to kanamycin. The selected plant individual was transplanted to a pot in which culture soil was previously placed, and grown in an artificial weather chamber to obtain T2 seeds. […]

Take `O=S(=O)([O-])[O-].[Cu+2]` [CuSO4]: the flowering time result is given as “flowering was induced earlier”.
